This passage reports CC50 and EC50 results from patent US12414961B2, “Substituted nucleosides and nucleotides for treating viral infections” (priority 2013, dated 2025).

The subject of one series is A204. Put plainly: Cytotoxicity (CC50) A204. The following applies: A204. Type of series: cell-based.
The test system of the next series is IEC-6. Kind of series: Cytotoxicity (CC50) IEC-6. Type of series: cell-based. The following applies: IEC-6.
The test system of another series is H9c. Kind of series: Cytotoxicity (CC50) H9c. Type of series: cell-based. The following applies: H9c.
The next series concerns CEM. Put plainly: Cytotoxicity (CC50) CEM. The following applies: read-out: Cytotoxicity (CC50 uM) CEM; CEM.
The next series has as its system Huh-7. Kind of series: Cytotoxicity (CC50) Huh-7. The following applies: read-out: Cytotoxicity (CC50 uM) Huh-7; Huh-7.
The subject of a further series is HepG2. Put plainly: Cytotoxicity (CC50) HepG2. The following applies: read-out: Cytotoxicity (CC50 uM) HepG2; HepG2.
The next series relates to BxPC3. Put plainly: Cytotoxicity (CC50) BxPC3. The following applies: read-out: Cytotoxicity (CC50 uM) BxPC3; BxPC3.
Another series has as its system HBV. Put plainly: HBV antiviral assay. It counts as cell-based. The following applies: Hepatitis B virus. The method, then:
Ten microliters of cell culture supernatant collected on the sixth day was diluted in qPCR dilution buffer (40 μg/mL sheared salmon sperm DNA) and boiled for 15 minutes. Quantitative real time PCR was performed in […] using an Applied Biosystems 7900HT Sequence Detection System and the supporting SDS 2.4 software. Five microliters (5 μL) of boiled DNA for each sample and serial 10-fold dilutions of a quantitative DNA standard were subjected to real time Q-PCR using Platinum Quantitative PCR SuperMix-UDG (Invitrogen) and specific DNA oligonucleotide primers (IDT, Coralville, […]) HBV-AD38-qF1 (5′-[…] -3′) (SEQ ID NO: 1), HBV-AD38-qR1 (5′-AGT CCA AGA GTY CTC TTA TRY AAG ACC TT-3′) (SEQ ID NO: 2), and HBV-AD38-qP1 (5′-FAM CCG TGT GCA/ZEN/[…] -3′BHQ1) (SEQ ID NO: 3) at a final concentration of 0.2 μM for each primer in a total reaction volume of 15 μL. The HBV DNA copy number in each sample was interpolated from the standard curve by the SDS.24 software and the data were imported into an Excel spreadsheet for analysis.

A short description of series [1]: Cytotoxicity in HepG2 cells (HBV assay). Type of series: cell-based. The following applies: human, HepG2.2.15 cells; beside HBV. The method, then: The 50% cytotoxic concentration for the test materials are derived by measuring the reduction of the tetrazolium dye XTT in the treated tissue culture plates. XTT is metabolized by the mitochondrial enzyme […] to a soluble formazan product in metabolically active cells. […] The 2-4 hour incubation has been empirically determined to be within linear response range for XTT dye reduction with the indicated numbers of cells for each assay. […] Data were collected by Softmax 4.6 software and imported into an Excel spreadsheet for analysis.

The test system of the next series is Adenovirus. Kind of series: Adenovirus antiviral assay. Type of series: cell-based. The following applies: unidentified adenovirus.
Series [2] concerns Huh-7 cells. Kind of series: Cytotoxicity in Huh-7 cells (Adenovirus, HSV-1 assays). It counts as cell-based, human. The following applies: beside HSV-1.
The next series concerns HSV-1. Put plainly: HSV-1 antiviral assay. The following applies: Human alphaherpesvirus 1. It counts as cell-based.
The subject of a further series is HIV. Kind of series: HIV infected PBMC assay. It counts as cell-based. The following applies: Human immunodeficiency virus 1, PBMC. The procedure: Fresh human peripheral blood mononuclear cells (PBMCs) were obtained from a commercial source (Biological Specialty) and were determined to be seronegative for HIV and HBV. Depending on the volume of donor blood received, the leukophoresed blood cells were washed several times with PBS. After washing, the leukophoresed blood was diluted 1:1 with Dulbecco's phosphate buffered saline (PBS) and layered over 15 mL of Ficoll-Hypaque density gradient in a 50 ml conical centrifuge tube. These tubes were centrifuged for 30 min at 600 g. Banded PBMCs were gently aspirated from the resulting interface and washed three times with PBS. […] After incubation, PBMCs were centrifuged and resuspended in tissue culture medium. The cultures were maintained until use by half-volume culture changes with fresh IL-2 containing tissue culture medium every 3 days. […]
Following addition of test compound to the wells, 50 uL of a predetermined dilution of HIV virus (prepared from 4× of final desired in-well concentration) was added, and mixed well. […] After 7 days in culture, HIV-1 replication was quantified in the tissue culture supernatant by measurement of reverse transcriptase (RT) activity. […]
Reverse Transcriptase Activity Assay—Reverse transcriptase activity was measured in cell-free supernatants using a standard radioactive incorporation polymerization assay. […]

Series [3] can be described thus: Cytotoxicity in PBM cells. It counts as cell-based. The following applies: human, peripheral blood mononuclear cells (PBMCs), PHA-P stimulated; beside HIV.
The subject of another series is HCMV. Put plainly: HCMV antiviral assay. The following applies: Human betaherpesvirus 5. Type of series: cell-based.
Series [4] is described as follows: Cytotoxicity in MRC-5 cells (HCMV, VZV assays). It counts as cell-based. The following applies: human, MRC-5 cells; beside HCMV.
Another series deals with MRC-5 Cells. Put plainly: Cytotoxicity in MRC-5 cells (HCMV, VZV assays). It counts as cell-based. The following applies: beside VZV.
Another series relates to VZV. Put plainly: VZV antiviral assay. It counts as cell-based. The following applies: Human alphaherpesvirus 3.
Series [5] deals with Huh-7 cells. Put plainly: Cytotoxicity in Huh-7 cells (Dengue assay). The following applies: read-out: CC50 uM; Cell Line Huh-7; […], 3, 4 table.
The next series in a line: Cytotoxicity (CC50) CEM. The following applies: human, CEM cells.
The nature of series [6]: Cytotoxicity (CC50) Huh-7. The following applies: human, Huh-7 cells.
Series [7] can be described thus: Cytotoxicity (CC50) HepG2. The following applies: human, HepG2 cells.
The nature of series [8]: Cytotoxicity in Vero cells (Dengue assay). The following applies: African green monkey.
The nature of series [9]: Cytotoxicity in Huh-7 cells (Dengue assay). The following applies: human, Huh-7 cells.
Series [10] has as its system Dengue Type 2. Kind of series: Anti-Dengue virus cytoprotection assay, Vero cells. The following applies: read-out: Dengue Type 2 Vero Cells (EC50 uM).
The test system of series [11] is Dengue Type 2. Put plainly: Anti-Dengue virus cytoprotection assay, Huh-7 cells. The following applies: Huh-7, read-out: Dengue Type 2 Huh-7 Cells (EC50 uM).
A short description of a further series: Cytotoxicity (CC50) A204. Type of series: cell-based. The following applies: human, A204 cells.
Series [12] can be described thus: Cytotoxicity (CC50) IEC-6. Type of series: cell-based. The following applies: rat, IEC-6 cells.
Another series in a line: Cytotoxicity (CC50) H9c. Type of series: cell-based. The following applies: rat, H9c cells.
Series [13] is described as follows: Cytotoxicity (CC50) BxPC3. The following applies: human, BxPC3 cells.

For the molecule `CC(C)OC(=O)[C@H](C)NP(=O)(OC[C@H]1O[C@@H](n2ccc(=O)[nH]c2=S)[C@](C)(O)C1O)Oc1ccccc1` (some centres unmarked) [drawing 366], the CC50 with A204 was 98 µM; in the series on IEC-6 it was more than 200 µM; in the series on H9c, more than 200 µM; with CEM, more than 300 µM; in the series with Huh-7 it was more than 400 µM; with HepG2, more than 400 µM. The CC50 in the series with BxPC3 is more than 300 µM.

For `CC(C)OC(=O)[C@H](C)NP(=O)(OC[C@H]1O[C@@H](n2ccc(=O)[nH]c2=S)C(C)(O)[C@H]1O)Oc1ccccc1` (some centres unmarked) [drawing 394], the EC50 in the series on HBV, in the series on Adenovirus, with HSV-1, in the series on HIV, with HCMV and in the series with VZV was more than 100 µM throughout. In addition, the CC50 at 6 days in [1] is more than 100 µM. Also, the CC50 (in the series on Huh-7 cells [2]; in series [4]; with MRC-5 Cells) was more than 100 µM throughout. For the same molecule, in [3], the CC50 at 7 days is more than 100 µM.

Turning to `CC(C)OC(=O)[C@H](C)NP(=O)(OC[C@H]1O[C@@H](n2ccc(=O)[nH]c2=S)[C@](C)(O)C1O)Oc1ccccc1` (some centres unmarked) [drawing 369], the CC50 was 98 µM with A204, more than 200 µM in the series with IEC-6 and more than 300 µM in the series on BxPC3.

`CC(C)OC(=O)[C@H](C)N[P@](=O)(OC[C@H]1O[C@@H](n2ccc(=O)[nH]c2=S)C(C)(O)[C@H]1O)Oc1ccccc1` (some centres unmarked) [drawing 393]: the CC50 with Huh-7 cells [5] is more than 100 µM.

`CC(C)OC(=O)[C@H](C)N[P@](=O)(OC[C@H]1O[C@@H](n2ccc(=O)[nH]c2=S)C(C)(O)[C@H]1O)Oc1ccccc1` (some centres unmarked) [drawing 388]: the 50% cytotoxic concentration (CC50) is more than 400 µM in the series “Cytotoxicity (CC50) CEM”; 252 µM in series [6]; more than 400 µM in series [7]; more than 100 µM in [8]; more than 100 µM in [9]. In addition, the EC50 with Dengue Type 2 [10] came out at 2.35 µM; in the series with Dengue Type 2 [11], 5.62 µM.

With `CC(C)OC(=O)[C@H](C)NP(=O)(OC[C@H]1O[C@@H](n2ccc(=O)[nH]c2=S)C(C)(O)[C@H]1O)Oc1ccccc1` (some centres unmarked) [drawing 387], the CC50 is 98 µM in “Cytotoxicity (CC50) A204”; more than 200 µM in [12]; more than 200 µM in the series “Cytotoxicity (CC50) H9c”; more than 300 µM in the series “Cytotoxicity (CC50) CEM”; more than 400 µM in [6]; more than 400 µM in series [7]. Moreover, the values for the CC50 in series [13], in series [8] and in [9] were more than 300 µM, more than 100 µM and more than 100 µM, respectively. In addition, the EC50 turned out to be 2.02 µM with Dengue Type 2 [10] and 5.1 µM in the series on Dengue Type 2 [11].

With `CC1(O)[C@@H](O)[C@@H](CO)O[C@H]1n1ccc(=O)[nH]c1=S` (some centres unmarked), the CC50 in the series “Cytotoxicity (CC50) CEM” was more than 200 µM; in series [6], more than 100 µM; in series [7] it was more than 400 µM; in series [13], more than 100 µM; in series [8], more than 100 µM; in series [9], more than 100 µM. Further, in the series with Dengue Type 2 [11], the EC50 is more than 100 µM.

Broadly, the CC50 is the concentration giving 50% cytotoxicity. As a reminder, the EC50 is the concentration giving half of the maximal effect.
